Reference: ChEMBL document CHEMBL1152143, “Potent benzimidazolone-based CGRP receptor antagonists” (Bioorg Med Chem Lett, 2008)

Columns and labels:
Conditions in all cases: Macaca mulatta
Rhesus monkey [1] = assay: Inhibition of CGRP-induced vasodilation in rhesus monkey at plasma concentration of 2 uM; type: functional
Rhesus monkey [2] = assay: Inhibition of CGRP-induced vasodilation in rhesus monkey
Rhesus monkey [3] = assay: Inhibition of CGRP-induced vasodilation in rhesus monkey at plasma concentration of 10 uM; type: functional

SMILES	inhibition at 2 µM (Rhesus monkey [1])	EC50 (Rhesus monkey [2])	inhibition at 10 µM (Rhesus monkey [3])
Cc1cc(C)c2c(c1)n(CC(=O)Nc1ccc3c(c1)C[C@]1(C3)C(=O)NC(=O)N1C)c(=O)n2CC(=O)N(C)C	100%	0.3 µM	
Cc1cc(C)c2c(c1)n(CC(=O)Nc1ccc3c(c1)C[C@]1(C3)C(=O)NC(=O)N1C)c(=O)n2C		10 µM	50%
